Test results published in ChEMBL document CHEMBL1255312, “Activity of daptomycin against Listeria monocytogenes isolates from cerebrospinal fluid” (Antimicrob Agents Chemother, 2008).
In brackets after ≈: the same amount, converted by molar mass.

Experiments:
Homo sapiens = experiment: Plasma concentration in healthy human at 4 mg/kg, iv QD; assay type: ADME, organism-based; parameters: dose 4 mg/kg, route intravenous; conditions: in vivo
Streptococcus pneumoniae = experiment: Antimicrobial activity against penicillin-, quinolone-resistant Streptococcus pneumoniae WB4 infected in experimental rabbit meningitis model; assay type: functional
Listeria monocytogenes [1] = experiment: Antimicrobial activity against Listeria monocytogenes isolated from cerebrospinal fluid of meningitis patient by broth dilution method; assay type: functional
Listeria monocytogenes [2] = experiment: Antimicrobial activity against Listeria monocytogenes isolated from cerebrospinal fluid of meningitis patient by Etest method; assay type: functional
Staphylococcus aureus [3] = experiment: Antimicrobial activity against Staphylococcus aureus infected in hydrocephalic rabbit administered intraventricularly as single dose; conditions: Cardiac ventricle
Staphylococcus aureus [4] = experiment: Antimicrobial activity against methicillin-susceptible Staphylococcus aureus infected in experimental rabbit meningitis model; assay type: functional

For `CCCCCCCCCC(=O)N[C@@H](Cc1c[nH]c2ccccc12)C(=O)N[C@H](CC(N)=O)C(=O)N[C@@H](CC(=O)O)C(=O)N[C@@H]1C(=O)NCC(=O)N[C@@H](CCCN)C(=O)N[C@@H](CC(=O)O)C(=O)N[C@H](C)C(=O)N[C@@H](CC(=O)O)C(=O)NCC(=O)N[C@H](CO)C(=O)N[C@@H]([C@H](C)CC(=O)O)C(=O)N[C@@H](CC(=O)c2ccccc2N)C(=O)O[C@@H]1C`, the Cp (Homo sapiens) was 60 mg/L, the MIC (Streptococcus pneumoniae) was 0.06 µg/mL (≈ 0.037 µM) and the MIC90 (Listeria monocytogenes [1]) was 4 µg/mL (≈ 2.47 µM). For the same compound, the MIC90 (Listeria monocytogenes [2]) was 4 µg/mL (≈ 2.47 µM), the MIC95 (Listeria monocytogenes [2]) was 1 µg/mL (≈ 0.617 µM) and the MIC (Staphylococcus aureus [3]) was 0.25 µg/mL (≈ 0.154 µM). For the same compound, the MIC (Staphylococcus aureus [4]) was 1 µg/mL (≈ 0.617 µM).
